According to patent US6916845B2, “Method for prevention and treatment of male and female sexual dysfunction” (priority 1999, dated 2005):
Read-outs that look alike come from different tables or passages of the source. Marks after values point to notes of the source that are not given here.

Columns and labels:
[1] = test system: cAMP formation in rabbit corpus cavernosum; assay: cAMP formation in corpus cavernosum of penis stimulated with SNP, radioimmunoassay; format: cell-based
[2] = target: T1, PDE5 isolated from human platelets (Homo sapiens, UniProt O76074); assay: Inhibition of cGMP specific PDE5, two-step radioisotope procedure; format: biochemical
T1 construct: PDE5 and PDE4 were isolated from human platelets and liver tissue using a Pharmacia FPLC system and Mono Q column; from tissue; host or cells: human platelets
Protocol: (§1) PDE5 and PDE4 were isolated from human platelets and liver tissue using a Pharmacia FPLC system and Mono Q column. The cyclic nucleotide PDE5/PDE4 activities in FPLC fractions were determined using a modification of the two-step radioisotope procedure ([^3H]GMP/[^3H]AMP).

iNOS mRNA = iNOS mRNA expression in penis of castrated rat model by RT-PCR; format: in vivo; conditions: for Mean conc./area (iNOS) / Ratio (iNOS/β-actin): castrated, 3 months
Protocol: (§2) Male Wistar rats(300-350 g)(n=24) randomly divide into 4 Groups; Group A for control; Group B for castrated and administration normal saline; Group C for castrated and oral administration Icariin […]; Group D for castrated and oral administration Icariin (5 mg/kg) for 3 months. After observe mating behavior, the animal was killed, the penis was excised rapidly, and cut into four parts. One of them used for immuohistochemical stain, the others was socked into RNAlater and stored in −70 condition. nNOS, eNOS, iNOS mRNA were semi-quantified by RT-PCR, β-actin as a controls. Specificity of RT-PCR products was confirmed by sequencing procedure, with-assay and between-assay variation was carried out respectively.

nNOS mRNA = nNOS mRNA expression in penis of castrated rat model by RT-PCR; format: in vivo; conditions: for Mean conc./area (nNOS) / Ratio (nNOS/β-actin): castrated, 3 months
Protocol: as §2

[3] = test system: cGMP formation in clitoris CC of female rabbits; assay: cGMP formation in CC of clitoris stimulated with SNP, radioimmunoassay; format: cell-based, rabbit
[4] = test system: rabbit's CC smooth muscle; assay: Relaxation of PHE pre-contracted corpus cavernosum smooth muscle strips in organ chamber; format: cell-based
Protocol: Sixty adults male New Zealand white rabbits(Weight: 2.5-3.0 kg) were used. Rabbits were anesthesia with sodium pentobarbital(50 mg/kg), penis was removed and corpus cavernous tissue were carefully isolated and made into 2×2×6 mm muscle strips for isometric tension was measured in organ chamber in vitro study with polygraph(MP 100 WS:Biopac systems, USA). CC muscle strip was fixed in 10 ml organ chamber containing Tyrode solution and continuously supplied with mixed gas(95% O2 and 5% CO2) and keep temperature at 37° C. The initial resting tensions of muscle strips were set at 2 g and tissue was allowed to equilibrate for 1.5-3.0 hours. Sub-maximal contractile responses to phenylepherine(PHE 5×10^-6 M) were observed and optimal isometric tension was determined. To evaluate the relaxation effects of icariin (the other components magnoflorine, querectin, epimedin A, B and C as the controls) on CC muscle strips, investigated the relaxation effects of different dosage of icariin on muscle strips pre-contracted by PHE. And to investigate the pharmaceutical action mechanism, the effects of […] Nω-nitric-L-arginine(L-NNA), guanylate cyclase antagonist methylene blue and pyrogallol, soluble guanylate cyclase inhibitor 1H-[1,2,4]oxadiazolo[4,3,-a]quinoxalin-1-one (ODQ) on the relaxation effects of icariin on CC.

[5] = test system: PDE4 isolated from human liver tissue; assay: Inhibition of cAMP specific PDE4, two-step radioisotope procedure; format: biochemical
Protocol: as §1

adult male rat [6] = conditions: in vivo
Protocol: (§3) Twenty-four male, adult Wistar rats(weight:300-350 g) were used. After anesthetization, the left carotid artery was cannulated to monitor mean arterial pressure (MAP). Bipolar electrodes were positioned on the cavernous nerve (CN); the right cavernous body was cannulated with 26 G needle connected with Biopack MP100 to monitor ICP changes. After intracavemosal administration of 100 μl different concentration Icariin or Reserpine (10^−8M to 10^−4M) respectively, the CN was electrically stimulated (ES) 10 minutes later and ICP and MAP were monitored. In order to investigate the possible mechanism of the effect of icariin on ICP changes, 100 μl different concentration guanylate cyclase inhibitor ODQ (10^−8M-10^−4M) were intracavemosal administrated 10 minutes after Icariin (100 μl 10^−4M) administration into CC, and then the ICP was measured during erection, which was, followed the ES.

[7] = test system: castrated male Wistar rats; assay: Sexual activities (mating behavior) in castrated rat model after long-term oral administration; format: in vivo; conditions: Group C and D, oral icariin for 3 months, n=10/12
Protocol: as §2

[8] = test system: cGMP formation in rabbit corpus cavernosum; assay: cGMP formation in corpus cavernosum of penis stimulated with SNP, radioimmunoassay; format: cell-based; conditions: in the presence of SNP
adult male rat [9] = assay: Intracavernosal press (ICP) changes after intracavernosal administration and cavernous nerve electrical stimulation; format: in vivo; conditions: CN stimulation 10 minutes later
Protocol: as §3

SD rat = format: in vivo; conditions: for LDso: once subcutaneously, after 7 days
Protocol: To investigate an acute toxicity of icariin, icariin was administered to SD rat. Total of 50 rats divide into 5 groups randomly and each group included 5 male and 5 female rats, respectively. The maximum dosage group for 3.0 g/kg, medium dosage group for 2.0 g/kg, sub-medium group for 1.0 g/kg and the minimum dosage group for 0.5 g/kg and comparative group for physiological saline solution only. Each of the drugs was once administered subcutaneously. After 7 days, it was shown that LDso of male was 1.88 g/kg and female was 1.96 g/kg.

COc1ccc(-c2oc3c(CC=C(C)C)c(O[C@@H]4O[C@H](CO)[C@@H](O)[C@H](O)[C@H]4O)cc(O)c3c(=O)c2O[C@@H]2O[C@@H](C)[C@H](O)[C@@H](O)[C@H]2O)cc1 [Icariin, icariin]
influence on cAMP levels [1]: no significantly influenced
IC50 [2]: 0.432 µM
inhibiting potency on PDE5 weaker than that of Sildenafil [2]: 108.10 times
specificity of inhibition PDE5 compared to PDE4 ([2]; ratio of IC50 PDE4/PDE5): 170.14 times
iNOS mRNA compared to control Group B (iNOS mRNA; Group C and D, p<0.05): significantly increased
Mean conc./area (iNOS) (iNOS mRNA; Group C, oral Icariin (mg/kg)): 17.28
Ratio (iNOS/β-actin) (iNOS mRNA; Group C, oral Icariin (mg/kg)): 0.50*
Mean conc./area (iNOS) (iNOS mRNA; Group D, oral Icariin 5 mg/kg): 23.20
Ratio (iNOS/β-actin) (iNOS mRNA; Group D, oral Icariin 5 mg/kg): 0.74*
nNOS mRNA compared to control Group B (nNOS mRNA; Group C and D, p<0.05): significantly increased
Mean conc./area (nNOS) (nNOS mRNA; Group C, oral Icariin (mg/kg)): 44.60
Ratio (nNOS/β-actin) (nNOS mRNA; Group C, oral Icariin (mg/kg)): 0.82*
Mean conc./area (nNOS) (nNOS mRNA; Group D, oral Icariin 5 mg/kg): 36.40
Ratio (nNOS/β-actin) (nNOS mRNA; Group D, oral Icariin 5 mg/kg): 1.08*
cGMP concentration in clitoris CC [3]: significantly increased
EC50 ([3]; Oryctolagus cuniculus, read-out: EC50 (cGMP formation, CC of clitoris)): 3.16 µM
EC50 ([4]; Oryctolagus cuniculus, read-out: EC50 on the relaxation effects of CC smooth muscle): 467 µM
relaxation effects on pre-contracted CC muscle strips ([4]; icariin 10^−4M): 23.12 ± 1.36%
relaxation effects on pre-contracted CC muscle strips ([4]; icariin 10^−5M): 4.42±1.08%
relaxation effects on pre-contracted CC muscle strips ([4]; icariin 10^−6M): 1.23±0.82%
relaxation effects on pre-contracted CC muscle strips ([4]; icariin 10^−7M): 0.08±0.04%
IC50 [5]: 73.5 µM
influence on MAP (adult male rat [6]): no obviously influence
castrated rats restored sexual activities [7]: 83.3%
cGMP concentration changes ([8]; 10^−3M): 10.43 ± 1.49 fmol/mg/min
cGMP concentration changes ([8]; 10^−4M): 10.82 ± 1.58 fmol/mg/min
cGMP concentration changes ([8]; 10^−5M): 8.92 ± 1.67 fmol/mg/min
cGMP concentration changes ([8]; 10^−6M): 8.66 ± 2.03 fmol/mg/min
Increase ICP (adult male rat [9]; 100 μl 10^−4M intracavernosal): 58.01 ± 5.78%
Increase ICP (adult male rat [9]; 100 μl 10^−5M intracavernosal): 30.48 ± 3.06%
Increase ICP (adult male rat [9]; 100 μl 10^−6M intracavernosal): 10.82 ± 1.06%
Increase ICP (adult male rat [9]; 100 μl 10^−7M intracavernosal): 5.53 ± 0.69%
acute toxicity (SD rat; SD rat, subcutaneous): low toxicity
LDso (SD rat; female SD rat): 1960 mg/kg
LDso (SD rat; male SD rat): 1880 mg/kg
